Holding throughout (type): physicochemical
Data set [1] is described as follows: Solubility test in propylene glycol monomethyl ether acetate. As to conditions: 23° C., ultrasonic waves 30 minutes, amount of complete dissolution. How it is done: The solubility was evaluated by precisely weighing the compound into a test tube, adding propylene glycol monomethyl ether acetate at 23° C. so as to attain a predetermined concentration, applying ultrasonic waves for 30 minutes in an ultrasonic cleaner, then visually observing the subsequent state of the fluid, determining the concentration of the amount of complete dissolution, and conducting evaluation according to the following criteria.
A: 5.0% by mass Amount of dissolution
B: 3.0% by mass Amount of dissolution <5.0% by mass
C: Amount of dissolution <3.0% by mass

Data set [2] is described as follows: Refractive index of optical member forming film (spectroscopic ellipsometer). As to conditions: wavelength 633 nm, film thickness 1000 nm, baked at 110° C. for 60 seconds. How it is done:
(§1) The compound was dissolved at 5% by mass in propylene glycol methyl ether to prepare an optical member forming material. Next, a silicon substrate was spin coated with the optical member forming material, and then baked at 110° C. for 60 seconds to form an optical member forming film with a film thickness of 1000 nm.
(§2) Subsequently, the refractive index and transparency tests at a wavelength of 633 nm were conducted using a vacuum ultraviolet variable angle spectroscopic ellipsometer (VUV-VASE) manufactured by J. A. Woollam Co., Inc. The refractive index and the transparency were evaluated according to the following criteria.
A: The refractive index was 1.65 or more.
C: The refractive index was less than 1.65.

Data set [3] in a line: Transparency (absorption constant) of optical member forming film. As to conditions: wavelength 633 nm, film thickness 1000 nm, baked at 110° C. for 60 seconds. How it is done:
as §1, §2
A: The absorption constant was less than 0.03.
B: The absorption constant was 0.03 or more and less than 0.05.
C: The absorption constant was 0.05 or more.

The next data set is described as follows: Film heat resistance. Also on record: key: A: No defect in the film was visually observed.; C: Defects in the film were visually observed (including disappearance of the film). As to conditions: film baked at 110° C. for 5 minutes, visual observation. Here is the method:
as §1
The optical member forming film obtained as described above was baked at 110° C. for 5 minutes, and evaluation of film heat resistance was carried out according to the following criteria.
A: No defect in the film was visually observed.
C: Defects in the film were visually observed (including disappearance of the film).

Each structure is given as a SMILES string.

Turning to `Oc1ccc(C(c2ccc(-c3ccccc3)cc2)c2ccc(O)c(-c3ccccc3)c2)cc1-c1ccccc1` [BiP-1], the Solubility result in data set [1] is “A (5.0% by mass Amount of dissolution)”. Moreover, the Refractive index result in data set [2] was “A (The refractive index was 1.65 or more.)”. Moreover, in data set [3], the Absorption constant result is reported as “A (The absorption constant was less than 0.03.)”. In addition, the Film heat resistance entry in “Film heat resistance” is “A”.

With `Oc1ccc(-c2ccc(O)c(C(c3ccc(-c4ccccc4)cc3)c3cc(-c4ccc(O)cc4)ccc3O)c2)cc1` [BiP-2], the Solubility entry in data set [1] was “A (5.0% by mass Amount of dissolution)”. Moreover, the Refractive index entry in data set [2] is given as “A (The refractive index was 1.65 or more.)”. Moreover, in data set [3], the Absorption constant result is reported as “A (The absorption constant was less than 0.03.)”. Further, the Film heat resistance result in “Film heat resistance” is “A”.

For the molecule `Oc1ccc(C(c2ccc(-c3ccccc3)cc2)c2ccc(O)cc2O)c(O)c1` [Example P-5], in data set [1], the Solubility entry is on record as “A (5.0% by mass Amount of dissolution)”. The Refractive index result in data set [2] is “A (The refractive index was 1.65 or more.)”. Further, the Absorption constant entry in data set [3] is recorded as “A (The absorption constant was less than 0.03.)”. In the data set “Film heat resistance”, the Film heat resistance entry is “A”.

As for `Oc1ccc(C(c2ccccc2)c2ccc(O)cc2O)c(O)c1` [Example P-6], the Solubility entry in data set [1] is given as “A (5.0% by mass Amount of dissolution)”. The Refractive index result in data set [2] is “A (The refractive index was 1.65 or more.)”. In addition, the Absorption constant entry in data set [3] is “A (The absorption constant was less than 0.03.)”. For the same molecule, the Film heat resistance entry in the data set “Film heat resistance” is reported as “A”.

For `Oc1ccc(C(c2ccc(C3CCCCC3)cc2)c2ccc(O)cc2O)c(O)c1` [Example P-7], the Solubility entry in data set [1] is recorded as “A (5.0% by mass Amount of dissolution)”. For the same molecule, the Refractive index entry in data set [2] is “A (The refractive index was 1.65 or more.)”. In data set [3], the Absorption constant entry is “A (The absorption constant was less than 0.03.)”. Besides, in “Film heat resistance”, the Film heat resistance result is reported as “A”.

Consider `Oc1ccc2ccc3c(c2c1)C(c1ccc(-c2ccc(C4c5c(ccc6ccc(O)cc56)Oc5ccc6ccc(O)cc6c54)cc2)cc1)c1c(ccc2ccc(O)cc12)O3` [XBiN 3], for which the Solubility entry in data set [1] was “A (5.0% by mass Amount of dissolution)”. In data set [2], the Refractive index result is “A (The refractive index was 1.65 or more.)”. In addition, the Absorption constant result in data set [3] is on record as “A (The absorption constant was less than 0.03.)”. For the same molecule, in “Film heat resistance”, the Film heat resistance entry was “A”.

Take `CC(C)Cc1ccc(C2c3c(ccc4cc(O)ccc34)Oc3ccc4cc(O)ccc4c32)cc1` [XBisN 2]: the Solubility result in data set [1] was “A (5.0% by mass Amount of dissolution)”. Besides, the Refractive index entry in data set [2] was “A (The refractive index was 1.65 or more.)”. The Absorption constant entry in data set [3] was “A (The absorption constant was less than 0.03.)”. Further, in “Film heat resistance”, the Film heat resistance result was “A”.

Take `CCCc1ccc(C2c3c(ccc4cc(O)ccc34)Oc3ccc4cc(O)ccc4c32)cc1` [XBisN-3]: the Solubility result in data set [1] is reported as “A (5.0% by mass Amount of dissolution)”. The Refractive index entry in data set [2] was “A (The refractive index was 1.65 or more.)”. Also, in data set [3], the Absorption constant result is reported as “A (The absorption constant was less than 0.03.)”. For the same molecule, the Film heat resistance entry in the data set “Film heat resistance” was “A”.

As for `Oc1ccc(C2c3c(ccc4cc(O)ccc34)Oc3ccc4cc(O)ccc4c32)cc1` [XBisN-4], in data set [1], the Solubility result was “A (5.0% by mass Amount of dissolution)”. Besides, in data set [2], the Refractive index entry is given as “A (The refractive index was 1.65 or more.)”. Also, the Absorption constant entry in data set [3] is “A (The absorption constant was less than 0.03.)”. For the same molecule, the Film heat resistance result in “Film heat resistance” is recorded as “A”.

On to `Oc1ccc2c3c(ccc2c1)Oc1ccc2cc(O)ccc2c1C3c1ccc(C2CCCCC2)cc1` [XBisN-5], for which the Solubility result in data set [1] is recorded as “A (5.0% by mass Amount of dissolution)”. The Refractive index result in data set [2] is reported as “A (The refractive index was 1.65 or more.)”. Moreover, the Absorption constant result in data set [3] was “A (The absorption constant was less than 0.03.)”. The Film heat resistance result in the data set “Film heat resistance” is “A”.

Regarding `CC(C)Cc1ccc(C2c3c(ccc4ccc(O)cc34)Oc3ccc4ccc(O)cc4c32)cc1` [XBisN-6], in data set [1], the Solubility result was “A (5.0% by mass Amount of dissolution)”. In addition, the Refractive index result in data set [2] is recorded as “A (The refractive index was 1.65 or more.)”. In addition, the Absorption constant entry in data set [3] is “A (The absorption constant was less than 0.03.)”. Further, the Film heat resistance result in the data set “Film heat resistance” is listed as “A”.

For the molecule `CCCc1ccc(C2c3c(ccc4ccc(O)cc34)Oc3ccc4ccc(O)cc4c32)cc1` [XBisN-7], in data set [1], the Solubility entry is on record as “A (5.0% by mass Amount of dissolution)”. The Refractive index entry in data set [2] is listed as “A (The refractive index was 1.65 or more.)”. The Absorption constant result in data set [3] is listed as “A (The absorption constant was less than 0.03.)”. The Film heat resistance entry in “Film heat resistance” is listed as “A”.

Take `Oc1ccc(C2c3c(ccc4ccc(O)cc34)Oc3ccc4ccc(O)cc4c32)cc1` [XBisN-8]: the Solubility entry in data set [1] is reported as “A (5.0% by mass Amount of dissolution)”. Besides, in data set [2], the Refractive index result is on record as “A (The refractive index was 1.65 or more.)”. The Absorption constant entry in data set [3] is listed as “A (The absorption constant was less than 0.03.)”. The Film heat resistance entry in the data set “Film heat resistance” is “A”.

Consider `Oc1ccc2ccc3c(c2c1)C(c1ccc(C2CCCCC2)cc1)c1c(ccc2ccc(O)cc12)O3` [XBisN-9], for which the Solubility entry in data set [1] was “A (5.0% by mass Amount of dissolution)”. In addition, the Refractive index result in data set [2] is “A (The refractive index was 1.65 or more.)”. Further, the Absorption constant result in data set [3] is given as “A (The absorption constant was less than 0.03.)”. Moreover, the Film heat resistance entry in “Film heat resistance” is given as “A”.

For `Oc1ccc2c3c(ccc2c1)Oc1ccc2cc(O)ccc2c1C3c1ccc(-c2ccccc2)cc1` [XiN-1], the Solubility entry in data set [1] is “A (5.0% by mass Amount of dissolution)”. Also, the Refractive index entry in data set [2] was “A (The refractive index was 1.65 or more.)”. The Absorption constant result in data set [3] was “A (The absorption constant was less than 0.03.)”. The Film heat resistance entry in “Film heat resistance” was “A”.

On to `Oc1ccc2c3c(ccc2c1)Oc1ccc2cc(O)ccc2c1C3c1ccc(-c2ccc(C3c4c(ccc5cc(O)ccc45)Oc4ccc5cc(O)ccc5c43)cc2)cc1` [XiN-3], for which the Solubility entry in data set [1] is given as “A (5.0% by mass Amount of dissolution)”. For the same molecule, the Refractive index entry in data set [2] is “A (The refractive index was 1.65 or more.)”. Further, the Absorption constant result in data set [3] was “A (The absorption constant was less than 0.03.)”. Moreover, the Film heat resistance entry in “Film heat resistance” is “A”.

The values above are taken from patent US20190359756A1, “OPTICAL MEMBER FORMING COMPOSITION” (Mitsubishi Gas Chemical Company, Inc., priority 2016, published 2019).
